According to patent US20070207975A1, “Materials and methods for treating and preventing Her-2/neu overexpressing, FAS-elevated cancer cells” (EVANSTON NORTHWESTERN HEALTHCARE, priority 2006, published 2007):

Experiments:
[1] = system: p185^Her-2/neu; assay: Flow cytometric analysis of cell surface-associated p185Her-2/neu; format: cell-based, human; settings: scavenger of reactive oxygen species added to OA treatment
Description: FIG. 1. […] FIG. 2. […] The amount of cell surface-associated p185^Her-2/neu was quantified by flow cytometric analyses using a specific antibody against the extracellular domain of p185^Her-2/neu (Ab-5), as described herein. The mean fluorescence signal±SD (n=3) was quantified using the geo mean fluorescence (GM) parameter provided with the Cell Quest Software (Becton Dickinson). […] After labeling, cells were washed thoroughly, and localization of p185^Her-2/neu was detected by indirect immunofluorescence by incubating with FITC-conjugated anti-mouse IgG. After counterstaining with DAPI, cells were examined and photographed using a Zeiss fluorescent microscope equipped with a built-in camera. […] Before experiments, cells were serum-starved overnight and then cultured in IMEM containing 0.1% FBS in the absence or presence of GLA (Sigma Chemical Co., St. Louis, Mo.). GLA was prepared at a concentration of 1 mg/mL in ethanol and was added to a final concentration of 0, 5, 10, or 20 μg/mL; an equal volume of ethanol was added to control cells. […] A) Cell surface expression of Her-2/neu protein in BT-474 and SK-Br3 cells was determined by flow cytometry using a mouse anti-Her-2/neu antibody directed against the extracellular domain of the p185^Her-2/neu oncoprotein (clone Ab-5; Oncogene Research Products; San Diego, Calif.). Briefly, after GLA or control treatment, cells were washed, harvested, resuspended in phosphate-buffered saline (PBS) containing 1% FBS, and incubated with 5 μg/mL Ab-5 antibody for 1 hour at 4° C. The cells were washed again and then incubated with a fluorescein isothiocyanate (FITC)-conjugated anti-mouse IgG secondary antibody (Jackson ImnunoResearch Laboratories, West Grove, Pa.) diluted 1:200 in cold PBS containing 1% FBS for 45 minutes at 4° C. The cells were washed once more in cold PBS, and flow cytometric analysis was performed with a FACScalibur flow cytometer (Becton Dickinson, San Diego, Calif.) equipped with Cell Quest Software (Becton Dickinson). […] As a control for nonspecific immunofluorescence, cells were stained with the secondary antibody alone (solid black line). The mean fluorescence signal associated with cells for labeled p185^Her-2/neu was quantified using the Geo Mean (GM) fluorescence parameter provided with the software. […] B) Immunoblot analysis of Her-2/neu and PEA3 proteins in control- and GLA-treated BT-474 and SK-Br3 cells. […] Immunoreactive bands were detected by enhanced chemiluminescence reagent (Pierce, Rockford, Ill.). Blots were reprobed with an anti-β-actin goat polyclonal antibody (Santa Cruz Biotechnology) to control for protein loading and transfer. Densitometric values of protein bands were quantified using Scion Imaging Software (Scion Corp., Frederick, Md.).

[2] = system: Lipogenic Cells; assay: Effect of fatty acids, lipogenic cells (Table 2); format: cell-based
[3] = system: Breast Cancer Cells; assay: Effect of fatty acids, breast cancer cells (Table 2); format: cell-based; settings: FAS named only for oleic acid

SMILES	prevention of OA-induced suppression of Her-2/neu overexpression [1]	Effect of Fatty Acids: Lipogenic Cells [2]	Effect of Fatty Acids: Breast Cancer Cells [3]
Cc1c(C)c2c(c(C)c1O)CCC(C)(CCCC(C)CCCC(C)CCCC(C)C)O2 (racemic) [vitamin E, dl-α-tocopherol, reference compound]	not significantly prevented	–	–
CCC=CCC=CCC=CCCCCCCCC(=O)O [ω-3 Alpha-Linolenic acid, 9,12,15-octadecatrienoic acid]	–	No effect	Potent Down-regulator
CCC=CCC=CCC=CCC=CCC=CCC=CCCC(=O)O [ω-3 Docosahexaenoic acid, 4,7,10,13,16,19-docosahexaenoic acid, reference compound]	–	No effect	Weak Down-regulator
CCC=CCC=CCC=CCC=CCC=CCCCC(=O)O [ω-3 Eicosapentaenoic acid, 5,8,11,14,17-eicosapentaenoic acid, reference compound]	–	Down-regulator	No effect
CCCCCC=CCC=CCCCCCCCC(=O)O [ω-6 Linoleic acid, 9,12-octadecadienoic acid, reference compound]	–	Potent	No effect
